# Reference: publication PMC6363759, “Decreased complexity of glucose dynamics in diabetes in rhesus monkeys” (Scientific Reports, 2019)
# How the values were obtained:
# [1] = in the clinic, cited from earlier work
# Excerpt: The sixth diabetic animal, 161281, was not treated because it was already receiving insulin.
# diabetic rhesus monkeys [2] = assay: Glucose lowering by liraglutide detected by continuous glucose monitoring (CGM); type: in vivo; conditions: for Mean glucose, With liraglutide: CGM over treatment period (16 to 28 days)
# Description: Vehicle used was 1 mM Sodium Phosphate (pH = 8) and 5% Mannitol. […] Blood samples were obtained at 0.08, 0.25, 0.50, 1.00, 2.00, 4.00, 6.00, 7.00, and 24.00 hours post-dose. […] Compound was given daily subcutaneously at 15 µg/kg in the morning each day (~8–9 am). Lira dosing started on Day 39 of the CGM period and continued for 28 days.
# Surgery procedure: Rhesus monkeys underwent surgery for placement of the DSI HD-XG glucose sensor into the right carotid artery. Animals were initially sedated with 10 mg/kg ketamine IM, intubated and anesthesia was maintained through isoflurane inhalation. All monkeys received 0.01 mg/kg Buprenorphine IM, 4.4 mg/kg carprofen SC and 20 mg/kg ceftiofur SC preoperatively. A 3–4 centimeter skin incision was made on the right, mid-lateral neck over the carotid artery where the pulse was palpated. A 1–2 centimeter segment of the right carotid artery was isolated and a tight ligature was placed distally towards the head around the exposed section of vessel. A second ligature was pre-placed, but not tightened, proximally towards the chest around the exposed section of vessel to prevent excessive bleeding when the vessel was cut. A small incision was made in the artery between these two ligatures. The sensor was inserted into the lumen of the vessel and advanced towards the heart approximately 8–9 centimeters. The pre-placed ligature was tightened to prevent bleeding around the sensor. A third ligature was secured around the sensor between the previously placed ligatures and further secured around the vessel to prevent the sensor from migrating. The telemetry body was secured to the underlying musculature in the right lateral neck near the sensor entry into the artery. Monkeys received 2 mg/kg bupivacaine locally at the skin incision. All incisions were then closed routinely. The animals were removed from the isoflurane anesthesia to allow for recovery and were monitored until they were sternal and stable. Animals received 4.4 mg/kg carprofen PO or IM once the day following surgery and were observed daily for the next 10 days to assure a normal recovery. A reference electrode and telemetry body was placed in the subcutaneous tissue near the catheter entry point as recommended by DSI.
# The implanted sensor transmits its signal to a repeater located on the same animal on the collar. That repeater then immediately retransmits the HD-XG data on a different frequency to a repeater receiver up to 8 meters away. […] Glucose sensor values were reported once per second.
# diabetic rhesus monkeys [3] = assay: Multiscale entropy (MSE) analysis of glucose dynamics before and during liraglutide treatment; type: in vivo; conditions: 15 µg/kg sc daily
# Description: Details about the definition and calculation of MSE are given in the Supplementary Materials and Methods. MSE-AUC10s-30m is the area under an MSE curve between scale factors of 10 seconds and 30 minutes, and was used as a single-number summary of the curve.
# Five diabetic animals were treated with liraglutide for four weeks, beginning during the sixth week of monitoring. […] For each animal the period of the same length immediately preceding the start of liraglutide was used as the comparator (‘pre-liraglutide’) period.
# Supplementary Materials and Methods
# Multiscale entropy analysis, introduced by Costa et al1, is built upon a quantity called sample entropy2, which we describe first. The sample entropy of a regularly spaced time series of length N is defined using two parameters: a subsequence length, m, and a similarity threshold, r. Consider any two subsequences of length m of the time series. […]
# start at the same position.) The subsequences are said to match if the i-th element of one subsequence differs from the i-th element of the other by no more than r, for all ݅=1,…,݉. Let B denote the number of matching pairs of subsequences when we consider all possible pairs of length- m subsequences from the first […] observations of the series. Next, repeat the process of counting matches, but use subsequences of length m+1instead of m, and consider all possible such subsequences taken from the full series of N observations. Let A denote the number of matching pairs among them.
# Then the sample entropy is the negative natural logarithm of the ratio A/B. See Richman and Moorman 2 for details and explicit formulas. […]
# Multiscale entropy calculates this sample entropy after applying various amounts of averaging to the original time series. […] The result is a new time series of averages, for which sample entropy is calculated. […]
# Application of MSE analysis requires choosing values for the parameters m and r, and the set of scale factors to use. […] The smallest possible scale fact or is set by the time resolution of the series being analyzed, in our case 1 second. […]
smiles,measurement,setting,value
CCCCCCCCCCCCCCCC(=O)N[C@@H](CCC(=O)NCCCC[C@H](NC(=O)[C@H](C)NC(=O)[C@H](C)NC(=O)[C@H](CCC(N)=O)NC(=O)CNC(=O)[C@H](CCC(=O)O)NC(=O)[C@H](CC(C)C)NC(=O)[C@H](Cc1ccc(O)cc1)NC(=O)[C@H](CO)NC(=O)[C@H](CO)NC(=O)[C@@H](NC(=O)[C@H](CC(=O)O)NC(=O)[C@H](CO)NC(=O)[C@@H](NC(=O)[C@H](Cc1ccccc1)NC(=O)[C@@H](NC(=O)CNC(=O)[C@H](CCC(=O)O)NC(=O)[C@H](C)NC(=O)[C@@H](N)Cc1cnc[nH]1)[C@@H](C)O)[C@@H](C)O)C(C)C)C(=O)N[C@@H](CCC(=O)O)C(=O)N[C@@H](Cc1ccccc1)C(=O)N[C@H](C(=O)N[C@@H](C)C(=O)N[C@@H](Cc1c[nH]c2ccccc12)C(=O)N[C@@H](CC(C)C)C(=O)N[C@H](C(=O)N[C@@H](CCCNC(=N)N)C(=O)NCC(=O)N[C@@H](CCCNC(=N)N)C(=O)NCC(=O)O)C(C)C)[C@@H](C)CC)C(=O)O [liraglutide],time of maximum concentrations post dosing,[1]; subcutaneous administration,8 to 12 h
same,mean peak (Cmax) exposure,[1]; subcutaneous single dose of 0.6 mg,35 ng/mL
same,afternoon peak in glucose,"diabetic rhesus monkeys [2]; all five treated diabetic rhesus, mean glucose by time of day, before and during treatment",reduced
same,"Mean glucose, With liraglutide","diabetic rhesus monkeys [2]; diabetic rhesus animal 161282, 15 µg/kg sc daily",208.2 mg/dL
same,"Mean glucose, With liraglutide","diabetic rhesus monkeys [2]; diabetic rhesus animal 161283, 15 µg/kg sc daily",109.6 mg/dL
same,"Mean glucose, With liraglutide","diabetic rhesus monkeys [2]; diabetic rhesus animal 161284, 15 µg/kg sc daily",183.1 mg/dL
same,"Mean glucose, With liraglutide","diabetic rhesus monkeys [2]; diabetic rhesus animal 161286, 15 µg/kg sc daily",236.6 mg/dL
same,"Mean glucose, With liraglutide","diabetic rhesus monkeys [2]; diabetic rhesus animal 161288, 15 µg/kg sc daily",140.9 mg/dL
same,"coefficient of variation of glucose (standard deviation as a proportion of the mean), treatment vs pre-treatment","diabetic rhesus monkeys [2]; five diabetic rhesus, 15 µg/kg sc daily",no consistent change
same,decline of mean glucose,"diabetic rhesus monkeys [2]; range over all five treated diabetic rhesus, 15 µg/kg sc daily, treatment vs pre-treatment period",5–42%
same,"MSE curve of glucose, treatment vs pre-treatment period",diabetic rhesus monkeys [3]; animals 161286 and 161288,higher
same,complexity of glucose dynamics in diabetic animals,"diabetic rhesus monkeys [3]; five diabetic rhesus, 2–4 weeks of treatment",did not consistently change complexity
same,"MSE of glucose, treatment vs pre-treatment period","diabetic rhesus monkeys [3]; three of five treated diabetic animals, 16 to 28 days",essentially no difference
